According to ChEMBL document CHEMBL1140570, “Synthesis and antimicrobial evaluation of guanylsulfonamides” (2007):
Values after ≈ are worked out from the molar mass of the structure shown. Active and inactive are the calls of the source. No cut-off for these calls is given here.

Columns and labels:
Klebsiella pneumoniae [1] = test: Antibacterial activity against Klebsiella pneumoniae ATCC 13883 by serial dilution method; format: functional
Pseudomonas aeruginosa = test: Antibacterial activity against Pseudomonas aeruginosa ATCC 27853 by serial dilution method; format: functional
Bacillus subtilis [2] = test: Antibacterial activity against Bacillus subtilis ATCC 6033 by serial dilution method; format: functional
Escherichia coli [3] = test: Antibacterial activity against Escherichia coli ATCC 25922 by serial dilution method; format: functional
Enterococcus faecalis = test: Antibacterial activity against Streptococcus faecalis ATCC 29212 by serial dilution method; format: functional
Staphylococcus aureus = test: Antibacterial activity against Staphylococcus aureus ATCC 25923 by serial dilution method; format: functional
Aspergillus flavus [4] = test: Antifungal activity against Aspergillus flavus NCIM 539 by serial dilution method; format: functional
Candida albicans [5] = test: Antifungal activity against Candida albicans NCIM C27 by serial dilution method; format: functional
Aspergillus niger [6] = test: Antifungal activity against Aspergillus niger NCIM 590 by serial dilution method; format: functional
Aspergillus flavus [7] = test: Antifungal activity against Aspergillus flavus NCIM 539 at 64 ug/mL by serial dilution method; format: functional, organism-based
Aspergillus niger [8] = test: Antifungal activity against Aspergillus niger NCIM 590 at 64 ug/mL by serial dilution method; format: functional, organism-based
Candida albicans [9] = test: Antifungal activity against Candida albicans NCIM C27 at 64 ug/mL by serial dilution method; format: functional, organism-based
Klebsiella pneumoniae [10] = test: Antibacterial activity against Klebsiella pneumoniae ATCC 13883 at 64 ug/mL by serial dilution method; format: functional, organism-based
Escherichia coli [11] = test: Antibacterial activity against Escherichia coli ATCC 25922 at 64 ug/mL by serial dilution method; format: functional, organism-based
Bacillus subtilis [12] = test: Antibacterial activity against Bacillus subtilis ATCC 6033 at 64 ug/mL by serial dilution method; format: functional, organism-based

| MIC (Klebsiella pneumoniae [1]) | MIC (Pseudomonas aeruginosa) | MIC (Bacillus subtilis [2]) | MIC (Escherichia coli [3]) | MIC (Enterococcus faecalis) | MIC (Staphylococcus aureus) | MIC (Aspergillus flavus [4]) | MIC (Candida albicans [5]) | MIC (Aspergillus niger [6]) | SMILES | Activity (Aspergillus flavus [7]) | Activity (Aspergillus niger [8]) | Activity (Candida albicans [9]) | Activity (Klebsiella pneumoniae [10]) | Activity (Escherichia coli [11]) | Activity (Bacillus subtilis [12]) |
| --- | --- | --- | --- | --- | --- | --- | --- | --- | --- | --- | --- | --- | --- | --- | --- |
| 32 µg/mL (≈ 76.5 µM) | 64 µg/mL (≈ 153 µM) | 16 µg/mL (≈ 38.2 µM) | 16 µg/mL (≈ 38.2 µM) | 32 µg/mL (≈ 76.5 µM) | 32 µg/mL (≈ 76.5 µM) | 16 µg/mL (≈ 38.2 µM) | 32 µg/mL (≈ 76.5 µM) | 32 µg/mL (≈ 76.5 µM) | COc1cc(S(=O)(=O)N2CCC(C)CC2)ccc1-n1cnc2c(=O)[nH]c(N)nc21 |  |  |  |  |  |  |
| 32 µg/mL (≈ 81.5 µM) | 64 µg/mL (≈ 163 µM) | 32 µg/mL (≈ 81.5 µM) | 64 µg/mL (≈ 163 µM) | 16 µg/mL (≈ 40.8 µM) | 32 µg/mL (≈ 81.5 µM) |  |  |  | Nc1nc2c(ncn2-c2ccc(S(=O)(=O)N3CCCCC3)cc2F)c(=O)[nH]1 | inactive | inactive | inactive |  |  |  |
| 32 µg/mL (≈ 78.7 µM) | 64 µg/mL (≈ 157 µM) | 64 µg/mL (≈ 157 µM) | 32 µg/mL (≈ 78.7 µM) | 32 µg/mL (≈ 78.7 µM) | 32 µg/mL (≈ 78.7 µM) | 64 µg/mL (≈ 157 µM) | 64 µg/mL (≈ 157 µM) | 32 µg/mL (≈ 78.7 µM) | CC1CCN(S(=O)(=O)c2ccc(-n3cnc4c(=O)[nH]c(N)nc43)c(F)c2)CC1 |  |  |  |  |  |  |
| 16 µg/mL (≈ 37.8 µM) | 16 µg/mL (≈ 37.8 µM) | 32 µg/mL (≈ 75.7 µM) | 16 µg/mL (≈ 37.8 µM) | 8 µg/mL (≈ 18.9 µM) | 4 µg/mL (≈ 9.46 µM) | 32 µg/mL (≈ 75.7 µM) | 64 µg/mL (≈ 151 µM) | 32 µg/mL (≈ 75.7 µM) | CC1CCN(S(=O)(=O)c2ccc(-n3cnc4c(=O)[nH]c(N)nc43)c(Cl)c2)CC1 |  |  |  |  |  |  |
|  | 64 µg/mL (≈ 165 µM) | 64 µg/mL (≈ 165 µM) |  | 64 µg/mL (≈ 165 µM) | 64 µg/mL (≈ 165 µM) |  |  |  | CC1CCN(S(=O)(=O)c2ccc(-n3cnc4c(=O)[nH]c(N)nc43)cc2)CC1 | inactive | inactive | inactive | inactive | inactive | inactive |
|  | 64 µg/mL (≈ 171 µM) |  |  | 64 µg/mL (≈ 171 µM) | 64 µg/mL (≈ 171 µM) |  |  |  | Nc1nc2c(ncn2-c2ccc(S(=O)(=O)N3CCCCC3)cc2)c(=O)[nH]1 | inactive | inactive | inactive | inactive | inactive | inactive |
| 16 µg/mL (≈ 39.1 µM) | 8 µg/mL (≈ 19.6 µM) | 32 µg/mL (≈ 78.3 µM) | 16 µg/mL (≈ 39.1 µM) | 4 µg/mL (≈ 9.78 µM) | 4 µg/mL (≈ 9.78 µM) | 64 µg/mL (≈ 157 µM) | 64 µg/mL (≈ 157 µM) | 64 µg/mL (≈ 157 µM) | Nc1nc2c(ncn2-c2ccc(S(=O)(=O)N3CCCCC3)cc2Cl)c(=O)[nH]1 |  |  |  |  |  |  |
| 32 µg/mL (≈ 79.1 µM) | 64 µg/mL (≈ 158 µM) | 16 µg/mL (≈ 39.6 µM) | 32 µg/mL (≈ 79.1 µM) | 64 µg/mL (≈ 158 µM) | 64 µg/mL (≈ 158 µM) | 16 µg/mL (≈ 39.6 µM) | 32 µg/mL (≈ 79.1 µM) | 16 µg/mL (≈ 39.6 µM) | COc1cc(S(=O)(=O)N2CCCCC2)ccc1-n1cnc2c(=O)[nH]c(N)nc21 |  |  |  |  |  |  |

| SMILES | MIC (Klebsiella pneumoniae [1]) | MIC (Pseudomonas aeruginosa) | MIC (Bacillus subtilis [2]) | MIC (Escherichia coli [3]) | MIC (Enterococcus faecalis) | MIC (Staphylococcus aureus) | MIC (Aspergillus flavus [4]) | MIC (Candida albicans [5]) | MIC (Aspergillus niger [6]) | Activity (Aspergillus flavus [7]) | Activity (Aspergillus niger [8]) | Activity (Candida albicans [9]) | Activity (Klebsiella pneumoniae [10]) | Activity (Escherichia coli [11]) | Activity (Bacillus subtilis [12]) |
| --- | --- | --- | --- | --- | --- | --- | --- | --- | --- | --- | --- | --- | --- | --- | --- |
| CCn1cc(C(=O)O)c(=O)c2cc(F)c(N3CCNCC3)cc21 [NORFLOXACIN] | 16 µg/mL (≈ 50.1 µM) | 8 µg/mL (≈ 25.1 µM) | 32 µg/mL (≈ 100 µM) | 16 µg/mL (≈ 50.1 µM) | 8 µg/mL (≈ 25.1 µM) | 8 µg/mL (≈ 25.1 µM) |  |  |  |  |  |  |  |  |  |
